In paper PMC6825211 (Nature Communications, 2019):
“And” between values parts separate entries of the source, which are not always exact repeats. Identical values can stand only once.

Key:
MLD–STZ C57BL/6J mice = assay: MLD–STZ model: PDX1, NKX6.1, Glut2 immunostaining; assay type: in vivo, mouse
Method: Representative triple stainings for PDX1 (red, a), Glut2 (red, b), or NKX6.1 (red, c), insulin (green), and DAPI (blue) are shown from vehicle-, STZ-, and STZ/Nera-treated mice (n = 8, 4, 9 & 9 mice/group). Scale bar, 100 μm
Mouse pancreases were dissected and fixed in 4% formaldehyde at 4 °C for 12 h before embedding in paraffin[62]. […] Slides were mounted with Vectashield with 4′6-diamidino-2-phenylindole (DAPI) (Vector Labs). β-cell apoptosis was analyzed by the terminal deoxynucleotidyl transferase-mediated dUTP nick-end labeling (TUNEL) technique according to the manufacturer’s instructions (In Situ Cell Death Detection Kit, TMR red; Roche) and double stained for insulin. Fluorescence was analyzed by using a Nikon MEA53200 (Nikon GmbH, Dusseldorf, Germany) microscope, and images were acquired by using NIS-Elements software (Nikon).

[1] = MLD–STZ model: body weight; assay type: in vivo, mouse; details: 5 mg/kg i.p. daily, 35 days
[2] = test system: obese diabetic Lepr db/db mice; assay: db/db model: ipGTT; assay type: in vivo, mouse; parameters: AUC ipGTT: unit not given beside the values
Excerpt: (§1) Data are representative of six mice per group (n = 6 for (a–f)). g–j Mice were killed at day 31. g β-cell mass (given as percentage of the whole pancreatic section from ten sections spanning the width of the pancreas; n = 5 mice/group) and quantitative analyses from triple stainings for (h) TUNEL, (i) Ki67, (j) pHH3, and (k) nuclear PDX1 expression, insulin, and DAPI expressed as percentage of TUNEL-, Ki67-, pHH3-, or nuclear PDX1-positive β-cells ± SEM. An average number of 13667 (h), 5937 (i), 7108 (j), or 4330 (k) β-cells were counted from n = 3–5 (h, i, k) or n = 5–6 (j) mice/group.
For intraperitoneal glucose tolerance tests, mice were fasted 12 h overnight and injected i.p. with glucose (40%; B.Braun, Melsungen, Germany) at a dose of 1 g/kg body weight. Blood samples were obtained at time points 0, 15, 30, 60, 90, and 120 min for glucose measurements by using a Glucometer. For i.p. insulin tolerance tests, mice were injected with 0.75 U/kg body weight recombinant human insulin (Novolin, Novo Nordisk) after 4–5-h fasting, and glucose concentration was determined with the Glucometer. Insulin secretion was measured before (0 min) and after (15 and 30 min) i.p. injection of glucose (2 g/kg) and measured by using ultrasensitive mouse Elisa kit (ALPCO Diagnostics, Salem, NH).

[3] = test system: obese diabetic Lepr db/db mice; assay: db/db model: ratio of secreted insulin and glucose at fed state; assay type: in vivo, mouse; details: dbdb Nera
[4] = test system: obese diabetic Lepr db/db mice; assay: db/db model: β-cell mass; assay type: in vivo, mouse; details: for BCM: dbdb mice
Excerpt: as §1
For morphometric data, ten sections (spanning the width of the pancreas) per mouse were analyzed. Pancreatic tissue area and insulin-positive area were determined by computer-assisted measurements by using a Nikon MEA53200 (Nikon GmbH, Dusseldorf, Germany) microscope, and images were acquired by using NIS-Elements software (Nikon). β-cell mass was obtained by multiplying the β-cell fraction by the weight of the pancreas.

[5] = test system: obese diabetic Lepr db/db mice; assay: db/db model: β-cell apoptosis (TUNEL); assay type: in vivo, mouse; details: for TUNEL%/ mouse: dbdb mice
Excerpt: as §1
Mouse pancreases were dissected and fixed in 4% formaldehyde at 4 °C for 12 h before embedding in paraffin[62]. Two-four-micrometer sections were deparaffinized, rehydrated, and incubated overnight at 4 °C with anti-PDX-1 (Abcam; #47267), anti-Glut2 (Chemicon; #07-1402), anti-Ki67 (Dako; #M7249), anti-phospho-Histone H3 (Ser10; Merck #06-570), and anti-NKX6.1 (DSHB, University of Iowa #F55A12[66]) in combination with TSA (Invitrogen #T30955), or for 2 h at room temperature with anti-insulin (Dako; A0546) antibodies (all at a dilution of 1:100, except anti-PDX-1, which was diluted 1:400) followed by fluorescein isothiocyanate (FITC)- or Cy3-conjugated secondary antibodies (Jackson ImmunoResearch Laboratories, West Grove, PA). Slides were mounted with Vectashield with 4′6-diamidino-2-phenylindole (DAPI) (Vector Labs). β-cell apoptosis was analyzed by the terminal deoxynucleotidyl transferase-mediated dUTP nick-end labeling (TUNEL) technique according to the manufacturer’s instructions (In Situ Cell Death Detection Kit, TMR red; Roche) and double stained for insulin. Fluorescence was analyzed by using a Nikon MEA53200 (Nikon GmbH, Dusseldorf, Germany) microscope, and images were acquired by using NIS-Elements software (Nikon).

[6] = test system: obese diabetic Lepr db/db mice; assay: db/db model: β-cell proliferation (Ki67); assay type: in vivo, mouse; details: dbdb mice
[7] = test system: obese diabetic Lepr db/db mice; assay: db/db model: β-cell proliferation (pHH3); assay type: in vivo, mouse; details: dbdb mice
MST2 = MST2 (Homo sapiens, UniProt Q13188); assay: biochemical; details: read-out: % inhibition by neratinib
Sequence of MST2 (Q13188 whole entry, species assumed): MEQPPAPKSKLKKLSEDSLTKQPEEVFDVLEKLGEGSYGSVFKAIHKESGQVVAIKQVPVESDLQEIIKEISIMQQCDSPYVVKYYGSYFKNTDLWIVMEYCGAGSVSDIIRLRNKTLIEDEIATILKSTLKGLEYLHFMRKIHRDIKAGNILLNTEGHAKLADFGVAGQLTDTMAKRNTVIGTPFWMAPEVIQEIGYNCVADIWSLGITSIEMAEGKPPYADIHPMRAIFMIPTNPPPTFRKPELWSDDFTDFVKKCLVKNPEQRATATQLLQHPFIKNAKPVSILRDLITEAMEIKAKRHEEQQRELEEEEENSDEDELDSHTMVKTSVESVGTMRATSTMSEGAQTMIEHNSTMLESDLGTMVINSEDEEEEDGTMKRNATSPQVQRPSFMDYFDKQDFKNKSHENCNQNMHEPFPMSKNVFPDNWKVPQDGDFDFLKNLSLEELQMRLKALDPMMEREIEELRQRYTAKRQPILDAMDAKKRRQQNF

INS-1E cells = assay: Cytotoxicity CellTiter-Glo assay; details: all tested concentrations, 24 h
Method: Assay plates were shaken vigorously for 1 min at RT to achieve completed cell lysis. Luminescence intensity was detected on Envision plate reader (Perkin Elmer, MA).

CAMK4 = CAMK4 (Homo sapiens, UniProt Q16566); assay: Nanosyn kinase profiling, mobility shift assay; details: read-out: % inhibition by neratinib
Sequence of CAMK4 (Q16566 whole entry): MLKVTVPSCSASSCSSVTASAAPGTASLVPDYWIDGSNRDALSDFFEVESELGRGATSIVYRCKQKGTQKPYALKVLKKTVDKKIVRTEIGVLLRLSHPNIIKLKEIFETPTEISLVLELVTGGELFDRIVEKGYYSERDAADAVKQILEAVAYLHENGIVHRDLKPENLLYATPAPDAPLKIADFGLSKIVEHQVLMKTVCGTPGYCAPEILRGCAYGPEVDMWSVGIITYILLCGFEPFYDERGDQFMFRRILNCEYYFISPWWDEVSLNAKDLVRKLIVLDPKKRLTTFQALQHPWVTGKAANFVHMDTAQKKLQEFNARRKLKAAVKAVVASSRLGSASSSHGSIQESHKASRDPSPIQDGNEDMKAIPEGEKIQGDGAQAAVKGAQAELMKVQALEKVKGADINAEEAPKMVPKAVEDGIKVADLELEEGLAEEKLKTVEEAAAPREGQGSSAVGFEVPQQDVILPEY

DYRK1A = DYRK1A (Homo sapiens, UniProt Q13627); assay: Nanosyn kinase profiling, mobility shift assay; details: read-out: % inhibition by neratinib
FAK = FAK (Homo sapiens, UniProt Q05397); assay: Nanosyn kinase profiling, mobility shift assay; details: read-out: % inhibition by neratinib
Sequence of FAK (Q05397 whole entry): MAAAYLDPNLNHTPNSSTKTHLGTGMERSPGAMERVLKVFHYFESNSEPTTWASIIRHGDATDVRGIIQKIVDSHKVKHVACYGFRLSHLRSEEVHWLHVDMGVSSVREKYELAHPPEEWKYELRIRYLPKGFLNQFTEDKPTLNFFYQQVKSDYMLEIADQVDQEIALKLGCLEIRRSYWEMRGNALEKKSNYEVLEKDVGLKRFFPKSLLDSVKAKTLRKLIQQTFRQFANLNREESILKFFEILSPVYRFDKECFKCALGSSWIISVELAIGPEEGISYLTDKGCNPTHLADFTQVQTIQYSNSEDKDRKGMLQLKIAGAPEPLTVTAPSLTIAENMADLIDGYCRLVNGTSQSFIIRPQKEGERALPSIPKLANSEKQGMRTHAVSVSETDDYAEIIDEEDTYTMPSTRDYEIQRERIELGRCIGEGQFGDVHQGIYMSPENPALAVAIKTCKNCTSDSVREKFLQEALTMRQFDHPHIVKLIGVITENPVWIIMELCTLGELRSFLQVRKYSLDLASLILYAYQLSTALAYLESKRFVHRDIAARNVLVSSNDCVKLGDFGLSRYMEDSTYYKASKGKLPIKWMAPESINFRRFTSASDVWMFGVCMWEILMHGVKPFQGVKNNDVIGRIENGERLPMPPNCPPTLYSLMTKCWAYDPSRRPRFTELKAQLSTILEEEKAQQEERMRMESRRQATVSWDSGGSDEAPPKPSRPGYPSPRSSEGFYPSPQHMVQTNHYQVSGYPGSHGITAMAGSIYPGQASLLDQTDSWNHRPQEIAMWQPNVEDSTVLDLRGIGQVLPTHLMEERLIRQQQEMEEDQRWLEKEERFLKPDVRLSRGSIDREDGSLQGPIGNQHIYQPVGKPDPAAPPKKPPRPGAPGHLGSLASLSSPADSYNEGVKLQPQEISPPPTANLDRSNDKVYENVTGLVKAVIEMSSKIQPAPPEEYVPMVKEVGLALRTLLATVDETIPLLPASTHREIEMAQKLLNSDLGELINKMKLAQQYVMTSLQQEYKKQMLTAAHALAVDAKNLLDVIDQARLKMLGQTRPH

FLT-3 = FLT-3 (Homo sapiens, UniProt P36888); assay: Nanosyn kinase profiling, mobility shift assay; details: read-out: % inhibition by neratinib
Sequence of FLT-3 (P36888 27-993): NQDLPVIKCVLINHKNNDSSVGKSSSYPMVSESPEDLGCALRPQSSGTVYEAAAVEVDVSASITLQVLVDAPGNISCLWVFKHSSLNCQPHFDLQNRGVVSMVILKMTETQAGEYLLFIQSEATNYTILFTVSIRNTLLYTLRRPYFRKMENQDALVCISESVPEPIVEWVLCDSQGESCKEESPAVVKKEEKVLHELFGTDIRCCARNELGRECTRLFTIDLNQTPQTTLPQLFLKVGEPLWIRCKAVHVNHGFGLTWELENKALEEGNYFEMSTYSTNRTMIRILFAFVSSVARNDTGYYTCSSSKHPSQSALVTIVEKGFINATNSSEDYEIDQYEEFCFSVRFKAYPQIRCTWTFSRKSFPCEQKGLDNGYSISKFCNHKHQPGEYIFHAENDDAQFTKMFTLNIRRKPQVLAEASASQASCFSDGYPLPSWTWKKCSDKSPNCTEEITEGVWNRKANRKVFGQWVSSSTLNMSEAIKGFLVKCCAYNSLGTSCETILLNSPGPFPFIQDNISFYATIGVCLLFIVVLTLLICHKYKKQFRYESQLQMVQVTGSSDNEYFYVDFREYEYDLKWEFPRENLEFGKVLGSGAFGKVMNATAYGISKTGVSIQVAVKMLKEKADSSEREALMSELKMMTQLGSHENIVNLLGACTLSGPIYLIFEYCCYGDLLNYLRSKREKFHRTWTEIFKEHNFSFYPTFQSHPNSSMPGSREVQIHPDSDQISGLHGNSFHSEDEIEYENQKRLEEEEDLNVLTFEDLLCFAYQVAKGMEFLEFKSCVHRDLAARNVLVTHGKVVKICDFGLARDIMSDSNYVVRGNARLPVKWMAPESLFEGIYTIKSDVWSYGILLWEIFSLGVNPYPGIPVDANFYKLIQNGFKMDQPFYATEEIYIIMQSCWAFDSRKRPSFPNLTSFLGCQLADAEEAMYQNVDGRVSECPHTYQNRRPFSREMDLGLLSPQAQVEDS

PDK1 = PDK1 (Homo sapiens, UniProt O15530); assay: Nanosyn kinase profiling, mobility shift assay; details: read-out: % inhibition by neratinib
Sequence of PDK1 (O15530 whole entry): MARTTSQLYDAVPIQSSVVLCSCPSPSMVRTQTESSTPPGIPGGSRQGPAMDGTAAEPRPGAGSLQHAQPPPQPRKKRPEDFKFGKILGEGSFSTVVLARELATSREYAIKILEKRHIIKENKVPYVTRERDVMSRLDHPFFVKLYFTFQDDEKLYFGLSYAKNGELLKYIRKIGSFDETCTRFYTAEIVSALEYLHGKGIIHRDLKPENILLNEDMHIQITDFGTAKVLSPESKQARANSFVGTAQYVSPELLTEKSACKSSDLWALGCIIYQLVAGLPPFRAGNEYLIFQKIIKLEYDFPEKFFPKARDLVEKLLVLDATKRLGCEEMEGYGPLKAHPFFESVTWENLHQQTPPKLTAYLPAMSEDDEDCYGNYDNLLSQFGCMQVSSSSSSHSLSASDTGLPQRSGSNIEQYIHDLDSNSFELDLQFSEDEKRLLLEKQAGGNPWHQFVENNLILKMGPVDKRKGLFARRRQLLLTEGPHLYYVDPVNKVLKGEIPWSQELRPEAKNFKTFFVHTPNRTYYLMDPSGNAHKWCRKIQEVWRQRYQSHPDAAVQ

PRKACA = PRKACA (Homo sapiens, UniProt P17612); assay: Nanosyn kinase profiling, mobility shift assay; details: read-out: % inhibition by neratinib
SGK1 = SGK1 (Homo sapiens, UniProt O00141); assay: Nanosyn kinase profiling, mobility shift assay; details: read-out: % inhibition by neratinib
Sequence of SGK1 (O00141 whole entry): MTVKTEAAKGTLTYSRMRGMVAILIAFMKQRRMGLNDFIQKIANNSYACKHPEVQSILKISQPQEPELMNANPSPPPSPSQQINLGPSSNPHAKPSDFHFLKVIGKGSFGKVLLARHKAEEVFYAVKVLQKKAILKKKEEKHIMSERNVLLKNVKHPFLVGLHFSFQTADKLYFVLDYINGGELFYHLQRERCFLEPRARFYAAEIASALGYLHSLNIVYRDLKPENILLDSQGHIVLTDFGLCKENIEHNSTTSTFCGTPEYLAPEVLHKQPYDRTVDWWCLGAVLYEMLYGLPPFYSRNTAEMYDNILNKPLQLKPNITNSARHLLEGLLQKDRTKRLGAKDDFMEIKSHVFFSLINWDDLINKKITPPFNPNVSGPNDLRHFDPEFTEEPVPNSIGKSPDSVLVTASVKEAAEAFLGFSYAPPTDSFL

TYK2 = TYK2 (Homo sapiens, UniProt P29597); assay: Nanosyn kinase profiling, mobility shift assay; details: read-out: % inhibition by neratinib

For `CCOc1cc2ncc(C#N)c(Nc3ccc(OCc4ccccn4)c(Cl)c3)c2cc1NC(=O)/C=C/CN(C)C` [neratinib], the “β-cell Glut2 expression” value (MLD–STZ C57BL/6J mice; MLD–STZ mice) was “restored β-cell Glut2 expression”, the “loss of nuclear PDX1- and NKX6.1-positive cells and islet architecture in MLD–STZ mice” value (MLD–STZ C57BL/6J mice; mouse, in vivo) was “markedly attenuated” and the body weight [1] was “no influence on body weight”. The “basal glucose levels after an overnight fast” value ([2]; db/db) was “unchanged”, the “glucose levels in ipGTT” value ([2]; db/db) was “lower glucose levels at all time points measured” and the “AUC ipGTT” value ([2]; insert 8b, individual mice) was 30540 and 34635 and 37620 and 33592.5 and 28230 and 32955. For the same compound, the “MEAN AUC ipGTT” value ([2]; insert 8b, mean) was 32928.8, the ipGTT ([2]; time after glc 0, MEAN) was 167.333 mg/dL and the ipGTT ([2]; time after glc 0, individual mice) was 133 mg/dL and 142 mg/dL and 168 mg/dL and 224 mg/dL and 154 mg/dL and 183 mg/dL. The ipGTT ([2]; time after glc 15, MEAN) was 424.5 mg/dL, the ipGTT ([2]; time after glc 15, individual mice, 600 mg/dl is maximum reading) was 425 mg/dL and 445 mg/dL and 468 mg/dL and 413 mg/dL and 308 mg/dL and 488 mg/dL and the ipGTT ([2]; time after glc 30, MEAN, 600 mg/dl is maximum reading) was 520.5 mg/dL. For the same compound, the ipGTT ([2]; time after glc 30, individual mice, 600 mg/dl is maximum reading) was 481 mg/dL and ≥ 600 mg/dL and 476 mg/dL and 485 mg/dL, the ipGTT ([2]; time after glc 60, MEAN) was 340.167 mg/dL and the ipGTT ([2]; time after glc 60, individual mice) was 301 mg/dL and 355 mg/dL and 388 mg/dL and 367 mg/dL and 321 mg/dL and 309 mg/dL. For the same compound, the ipGTT ([2]; time after glc 90, MEAN) was 226 mg/dL, the ipGTT ([2]; time after glc 90, individual mice) was 221 mg/dL and 183 mg/dL and 280 mg/dL and 259 mg/dL and 141 mg/dL and 272 mg/dL and the ipGTT ([2]; time after glc 120, MEAN) was 170.833 mg/dL. The ipGTT ([2]; time after glc 120, individual mice) was 191 mg/dL and 139 mg/dL and 210 mg/dL and 133 mg/dL and 213 mg/dL, the ins/gluc ([3]; Mean) was 13.8584 and the ins/gluc ([3]; fed state, individual mice) was 16.7538 and 11.2869 and 14.8626 and 15.5775 and 11.515 and 13.1546. The β-cell mass ([4]; db/db, day 31) was “increased β-cell mass”, the BCM ([4]; Mean) was 4.571 and the BCM ([4]; individual mice) was 1.526 and 8.3226 and 3.26 and 4.639 and 5.1069. For the same compound, the β-cell apoptosis ([5]; db/db, day 31) was “significantly reduced β-cell apoptosis”, the TUNEL%/ mouse ([5]; Mean) was 0.5462% and the TUNEL%/ mouse ([5]; individual mice) was 0.6553% and 0.4112% and 0.66% and 0.4585%. The Ki67%/ mouse ([6]; Mean) was 1.047%, the Ki67%/ mouse ([6]; individual mice) was 0.4896% and 1.365% and 0.6515% and 1.681% and the pHH3 %/ mouse ([7]; Mean) was 0.4112%. The pHH3 %/ mouse ([7]; individual mice) was 0.7567% and 0.6289% and 0.2824% and 0.1109% and 0.2748% and 0.4135%, the inhibition at 10 µM (MST2) was 97% and the “basal cell viability (steady-state ATP)” value (INS-1E cells) was “no evidence of interference on basal cell viability”. For the same compound, the inhibition at 10 µM (CAMK4) was 19%, the inhibition at 10 µM (DYRK1A) was 3% and the inhibition at 10 µM (FAK) was 8%. The inhibition at 10 µM (FLT-3) was 47%, the inhibition at 10 µM (PDK1) was 6% and the inhibition at 10 µM (PRKACA) was 3%. For the same compound, the inhibition at 10 µM (SGK1) was 28% and the inhibition at 10 µM (TYK2) was 15%.
